From PubChem BioAssay (NCI)
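1) Cells in 96-well plates. 2) Compound, 48 h, 5 concentrations. 3) Linear interpolation between surrounding doses. 4) Unreached endpoint = highest concentration. TGI is the concentration that stops growth completely.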

How the values were obtained:
Assay in all cases: NCI-60 cell line screen, 48 h
M19-MEL melanoma = tested on: M19-MEL melanoma
LXFL 529 NSCLC = tested on: LXFL 529 NSCLC
HOP-62 NSCLC = tested on: HOP-62 NSCLC
SNB-78 CNS = tested on: SNB-78 CNS
DLD-1 colon = tested on: DLD-1 colon
KM20L2 colon = tested on: KM20L2 colon
SK-OV-3 ovarian = tested on: SK-OV-3 ovarian
DMS 114 small cell lung = tested on: DMS 114 small cell lung
RXF-631 renal = tested on: RXF-631 renal
UO-31 renal = tested on: UO-31 renal
SF-539 CNS = tested on: SF-539 CNS
HT29 colon = tested on: HT29 colon
DMS 273 small cell lung = tested on: DMS 273 small cell lung
HOP-18 NSCLC = tested on: HOP-18 NSCLC
XF 498 CNS = tested on: XF 498 CNS
MDA-MB-435 = tested on: MDA-MB-435

SMILES | TGI (M19-MEL melanoma) | TGI (LXFL 529 NSCLC) | TGI (HOP-62 NSCLC) | TGI (SNB-78 CNS) | TGI (DLD-1 colon) | TGI (KM20L2 colon) | TGI (SK-OV-3 ovarian) | TGI (DMS 114 small cell lung) | TGI (RXF-631 renal) | TGI (UO-31 renal) | TGI (SF-539 CNS) | TGI (HT29 colon) | TGI (DMS 273 small cell lung) | TGI (HOP-18 NSCLC) | TGI (XF 498 CNS) | TGI (MDA-MB-435)
NC(=O)C(=O)C1CCC2=C(Sc3ccccc3N2)C1=O (stereo not drawn) | > 100 µM | > 100 µM | > 100 µM | > 100 µM | > 100 µM | > 100 µM | > 100 µM | > 100 µM | > 100 µM | > 100 µM | > 100 µM | – | – | – | – | –
CN(C)C(=NCc1ccccc1)NC#N | > 100 µM | > 100 µM | > 100 µM | > 100 µM | > 100 µM | > 100 µM | > 100 µM | – | – | > 100 µM | > 100 µM | > 100 µM | > 100 µM | – | – | –
CCOP1(=O)C=C(C)C(Cl)=C(C)C1 (stereo not drawn) | > 100 µM | 44.5 µM | > 100 µM | – | > 100 µM | > 100 µM | > 100 µM | 44.9 µM | 30.5 µM | > 100 µM | 59.5 µM | 79.6 µM | 30.8 µM | > 100 µM | 75.2 µM | –
C/C(=C\CBr)CCC(Br)C(C)(C)Cl (stereo not drawn) | > 100 µM | > 100 µM | > 100 µM | > 100 µM | > 100 µM | – | > 100 µM | > 100 µM | – | > 100 µM | > 100 µM | > 100 µM | > 100 µM | > 100 µM | – | –
CCN(CC)c1ccc2c(c1)Oc1ccc(N(CC)CC)cc1C21Oc2ccccc2-c2c1c1ccccc1n2CC (stereo not drawn) | – | > 100 µM | – | > 100 µM | > 100 µM | > 100 µM | > 100 µM | 3.61 µM | > 100 µM | 63.2 µM | – | > 100 µM | > 100 µM | > 100 µM | 4.08 µM | –
CCOC(=O)/C=C/CCO[Si](C)(C)C(C)(C)C | – | – | > 100 µM | – | – | – | > 100 µM | – | – | > 100 µM | > 100 µM | > 100 µM | – | – | – | > 100 µM
c1ccc2oc(-c3ccc(-c4nc5ccccc5o4)c4c3CC4)nc2c1 | – | – | > 100 µM | – | – | – | > 100 µM | – | – | > 100 µM | > 100 µM | > 100 µM | – | – | – | > 100 µM
C/C=C/C#CC#C/C=C/C=C/C(O)CCO (stereo not drawn) | > 23.1 µM | > 23.1 µM | > 23.1 µM | > 23.1 µM | > 23.1 µM | > 23.1 µM | > 23.1 µM | > 23.1 µM | – | > 23.1 µM | > 23.1 µM | > 23.1 µM | > 23.1 µM | > 23.1 µM | > 23.1 µM | –
O=c1[nH]nc(Cc2ccccc2)n1C1CCCC1 | – | – | > 100 µM | – | – | – | > 100 µM | – | – | > 100 µM | > 100 µM | > 100 µM | – | – | – | > 100 µM
[O-]c1c2cc(-[n+]3c(-c4ccccc4)cc(-c4ccccc4)cc3-c3ccccc3)cc1COCCOCCOCCOCCOC2 | 87.3 µM | 55 µM | > 100 µM | – | > 100 µM | > 100 µM | > 100 µM | – | – | > 100 µM | > 100 µM | > 100 µM | > 100 µM | > 100 µM | – | –
COc1cc2c(c(O)c1OC)C(=O)[C@@H]1CCC(=O)N1C2 | – | – | > 100 µM | – | – | – | > 100 µM | – | – | > 100 µM | > 100 µM | > 100 µM | – | – | – | > 100 µM
CC(=O)OCC(=O)O[C@@H]1[C@H]2[C@@H](OC(=O)c3ccccc3)[C@@H](C)C[C@]2(O)[C@H](OC(C)=O)[C@@]2(C)C(OC(C)=O)[C@]1(OC(C)=O)C[C@H]1C(=O)C(C)(C)C[C@@H]12 (stereo partly drawn) | – | – | > 50 µM | – | – | – | > 50 µM | – | – | > 50 µM | > 50 µM | > 50 µM | – | – | – | > 50 µM
COc1ccc(Oc2cccc(C3C4C(=O)N(c5ccc(C)c(Cl)c5)C(=O)C4ON3C(C(N)=O)c3ccccc3)c2)cc1 (stereo not drawn) | – | – | > 50 µM | – | – | – | > 50 µM | – | – | > 50 µM | 21.8 µM | 19.8 µM | – | – | – | > 50 µM
N#Cc1c2c(c(N)oc1=O)C(c1ccccc1)CC(=O)N2 (stereo not drawn) | – | – | > 100 µM | – | – | – | > 100 µM | – | – | > 100 µM | > 100 µM | > 100 µM | – | – | – | > 100 µM
O=C(NC1CCN(Cc2ccccc2)CC1)c1ccc(I)cc1 | – | – | > 100 µM | – | – | – | > 100 µM | – | – | > 100 µM | > 100 µM | > 100 µM | – | – | – | > 100 µM
